Results: patent publication US6409508B1, “Use of ozone for the treatment of dental caries” (Natural White, priority 1998, dated 2002)

Tests used:
Format in all cases: cell-based
[1] = test system: Streptococcus sobrinus; TH 21; test: Ozone on S. sobrinus on saliva coated glass beads; details: 10 seconds of ozone applied to glass beads
Description: (§1) The aims of these studies were to evaluate the efficiency of ozone on primary root caries and associated micro-organisms (Streptococcus sobrinus; TH 21, Streptococcus mutans; NCTC 10449). In study 1, 40 soft primary root carious lesions (PRCLs) from freshly extracted teeth were used and randomly divided into two groups to test the exposure to ozone for either 10 or 20 seconds. There was a significant (p<0.001) difference (Mean±SE) between the control samples for. either 10 seconds (log10 5.91±0.15) or 20 seconds (log10 6.18±0.21) and ozone treated samples for either 10 seconds (log10 3.57±0.37) or 20 seconds (log10 3.77±0.42). In study 2, 40 sterile saliva coated glass beads were put into bijoux bottles with 3 mls of Todd Hewitt broth for control and test groups. S. sobrinus and S. mutans were inoculated and incubated anaerobically overnight. Each glass bead was washed with 2 mls of PBS. Immediately, 10 seconds of ozone was applied to the glass beads in the test groups. Subsequently, each glass bead in the test and control groups was placed in 3 mls of Todd Hewitt Broth with six more sterile glass beads and were vortexed for 30 seconds. After decimal dilutions, 100 ml aliquots were spread on blood agar plates supplemented with 5% (V/V) horse blood and placed in an anaerobic chamber at 37° C. for two days. The number of each colony type was counted and calculated. […]

[2] = test system: micro-organisms in primary root carious lesions (PRCL); test: Ozone effect on microflora from primary root caries ex-vivo; details: for Mean ± SE of total cfu (Log10): after 10 seconds of ozone treatment
Description: Primary root carious lesions (PRCL) are a major clinical problem. The aim of this study was to establish if ozone could achieve effective microbial killing in PRCL. An ozone producing generator (Purezone Ltd., Ipswich, U.K.) was used in this ex-vivo study assessing the use of ozone on PRCL. In this study, soft PRCL requiring restoration were used as these are the most severe type of lesion found in humans. 20 freshly extracted teeth with PRCL requiring restoration were used. After plaque removal using a hand held standard fine nylon fibre sterile toothbrush with sterile water as a lubricant to cleanse the surface, each tooth was then isolated using sterile cotton wool rolls and dried using a dry sterile cotton wool roll. […] Each sample was weighed and immediately placed in 1 ml of Fastidious Anaerobe Broth (FAB). To each 1 ml of FAB containing a biopsy of carious or ozone treated carious dentine, sterile glass beads were added. They were vortexed for 30 seconds to facilitate the extraction of any micro-organisms from the carious dentine and disperse any aggregates. After decimal dilution with FAB, […] of these was spread on Fastidious Anaerobe Agar (LabM. Bury, Lancs., U.K.) supplemented with 5% (V/V) horse blood in an anaerobic chamber at 37° C. for four days. The mean±SE number of each colony type was counted and calculated.
The procedure of Example 2 was repeated except that ozonised water was applied to the lesion for 20 seconds.
as §1, with “After decimal dilutions, 100 ml aliquots were spread on blood agar plates supplemented with 5% (V/V) horse blood and placed in an anaerobic chamber at 37° C. for two days.” left out

[3] = test system: Streptococcus mutans; NCTC 10449; test: Ozone on S. mutans on saliva coated glass beads; details: 10 seconds of ozone applied to glass beads
Description: as §1

SMILES: O=[O+][O-] [Ozone, ozone]
- colony count (log10, Mean±SE) [1]: 1.09±0.36 log10
- percentage of micro-organisms killed ([2]; 10 seconds of ozone treatment): more than 99%
- Mean ± SE of total cfu (Log10) ([2]; soft PRCL, freshly extracted teeth): 3.57 ± 0.37 Log10
- Mean ± SE of total cfu (Log10) ([2]; soft PRCL, freshly extracted teeth, listed as ozone): 3.57±0.37 Log10
- Mean ± SE of total cfu (log10) ([2]; after 20 seconds of ozone (ozonised water) treatment, soft PRCL, freshly extracted teeth): 3.77±0.42 log10
- colony count (log, Mean±SE) [3]: 1.01±0.27 log
